Experimental data: PubChem BioAssay (NCI)
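Grown in 96-well plates, cells were treated for 48 hours with each compound at five concentrations. Insufficient inhibition: endpoint recorded as highest concentration tested. GI50 = concentration required for 50% inhibition of growth. TGI marks complete inhibition of growth.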 Active and inactive are the calls of the source. No stated cut-off is given here; in the data, active means GI50 below about 0.43 µM; inactive means the rest.

Tests used:
Experiment in all cases: inhibition of tumour cell growth, NCI panel, 48 h
786-0 renal = test system: 786-0 renal
A498 renal = test system: A498 renal
A549 NSCLC = test system: A549 NSCLC
ACHN renal = test system: ACHN renal
CCRF-CEM leukemia = test system: CCRF-CEM leukemia
COLO 205 colon = test system: COLO 205 colon
DU-145 prostate = test system: DU-145 prostate
EKVX NSCLC = test system: EKVX NSCLC
HCT-116 colon = test system: HCT-116 colon
HCT-15 colon = test system: HCT-15 colon
HL-60(TB) leukemia = test system: HL-60(TB) leukemia
HOP-62 NSCLC = test system: HOP-62 NSCLC
HOP-92 NSCLC = test system: HOP-92 NSCLC
HS 578T breast = test system: HS 578T breast
HT29 colon = test system: HT29 colon
IGROV1 ovarian = test system: IGROV1 ovarian
K-562 leukemia = test system: K-562 leukemia
KM12 colon = test system: KM12 colon
LOX IMVI melanoma = test system: LOX IMVI melanoma
M14 melanoma = test system: M14 melanoma
MALME-3M melanoma = test system: MALME-3M melanoma
MCF7 breast = test system: MCF7 breast
MDA-MB-231 breast = test system: MDA-MB-231 breast
MDA-MB-435 = test system: MDA-MB-435
MDA-N = test system: MDA-N
MOLT-4 leukemia = test system: MOLT-4 leukemia
NCI-H226 lung = test system: NCI-H226 lung
NCI-H23 lung = test system: NCI-H23 lung
NCI-H460 lung = test system: NCI-H460 lung
NCI-H522 lung = test system: NCI-H522 lung
NCI/ADR-RES ovarian = test system: NCI/ADR-RES ovarian
OVCAR-4 ovarian = test system: OVCAR-4 ovarian
OVCAR-5 ovarian = test system: OVCAR-5 ovarian
OVCAR-8 ovarian = test system: OVCAR-8 ovarian
PC-3 prostate = test system: PC-3 prostate
RXF 393 renal = test system: RXF 393 renal
SF-268 CNS = test system: SF-268 CNS
SF-295 CNS = test system: SF-295 CNS
SF-539 CNS = test system: SF-539 CNS
SK-MEL-2 melanoma = test system: SK-MEL-2 melanoma
SK-MEL-28 melanoma = test system: SK-MEL-28 melanoma
SK-MEL-5 melanoma = test system: SK-MEL-5 melanoma
SK-OV-3 ovarian = test system: SK-OV-3 ovarian
SN12C renal = test system: SN12C renal
SNB-19 CNS = test system: SNB-19 CNS
SNB-75 CNS = test system: SNB-75 CNS
SW-620 colon = test system: SW-620 colon
T-47D breast = test system: T-47D breast
TK-10 renal = test system: TK-10 renal
U251 CNS = test system: U251 CNS
UACC-257 melanoma = test system: UACC-257 melanoma
UACC-62 melanoma = test system: UACC-62 melanoma
UO-31 renal = test system: UO-31 renal
CAKI-1 renal = test system: CAKI-1 renal
HCC-2998 colon = test system: HCC-2998 colon
OVCAR-3 ovarian = test system: OVCAR-3 ovarian
RPMI-8226 leukemia = test system: RPMI-8226 leukemia
SR leukemia = test system: SR leukemia

O=C(O)CN1CCN(CC(=O)O)CCN(CC(=O)O)CC1
outcome (786-0 renal): inactive | TGI (A498 renal): > 75.8 µM | outcome (A498 renal): inactive | GI50 (A549 NSCLC): 3550 µM | TGI (A549 NSCLC): > 25.4 µM | outcome (ACHN renal): inactive | TGI (CCRF-CEM leukemia): > 59 µM | outcome (CCRF-CEM leukemia): inactive | GI50 (COLO 205 colon): 4770 µM | TGI (COLO 205 colon): 9.69 µM | outcome (DU-145 prostate): inactive | outcome (EKVX NSCLC): inactive | GI50 (HCT-116 colon): 6750 µM | GI50 (HCT-15 colon): 9440 µM | TGI (HL-60(TB) leukemia): 4.74 µM | outcome (HOP-62 NSCLC): inactive | outcome (HOP-92 NSCLC): inactive | outcome (HS 578T breast): inactive | GI50 (HT29 colon): 4400 µM | GI50 (IGROV1 ovarian): 7100 µM | TGI (K-562 leukemia): > 21.9 µM | GI50 (KM12 colon): 5450 µM | outcome (LOX IMVI melanoma): inactive | GI50 (M14 melanoma): 10500 µM | outcome (MALME-3M melanoma): inactive | GI50 (MCF7 breast): 6360 µM | outcome (MDA-MB-231 breast): inactive | outcome (MDA-MB-435): inactive | GI50 (MDA-N): 18500 µM | outcome (MOLT-4 leukemia): inactive | outcome (NCI-H226 lung): inactive | GI50 (NCI-H23 lung): 76100 µM | GI50 (NCI-H460 lung): 4560 µM | GI50 (NCI-H522 lung): 8060 µM | TGI (NCI-H522 lung): > 70.8 µM | TGI (NCI/ADR-RES ovarian): > 30.9 µM | outcome (NCI/ADR-RES ovarian): inactive | outcome (OVCAR-4 ovarian): inactive | outcome (OVCAR-5 ovarian): inactive | GI50 (OVCAR-8 ovarian): 22300 µM | TGI (OVCAR-8 ovarian): > 24.1 µM | GI50 (PC-3 prostate): 9040 µM | GI50 (RXF 393 renal): 9940 µM | outcome (SF-268 CNS): inactive | outcome (SF-295 CNS): inactive | outcome (SF-539 CNS): inactive | GI50 (SK-MEL-2 melanoma): 16700 µM | outcome (SK-MEL-28 melanoma): inactive | GI50 (SK-MEL-5 melanoma): 6790 µM | TGI (SK-MEL-5 melanoma): > 23.2 µM | outcome (SK-OV-3 ovarian): inactive | outcome (SN12C renal): inactive | outcome (SNB-19 CNS): inactive | outcome (SNB-75 CNS): inactive | outcome (SW-620 colon): inactive | outcome (T-47D breast): inactive | GI50 (TK-10 renal): 33100 µM | outcome (U251 CNS): inactive | GI50 (UACC-257 melanoma): 71500 µM | GI50 (UACC-62 melanoma): 8700 µM | outcome (UO-31 renal): inactive

CC(C)C(O)(C(=O)OCN1C(=O)C2C3C=CC(C2C1=O)C1C2C(=O)N(COC(=O)C(O)(C(C)C)C(C)O)C(=O)C2C31)C(C)O (stereo unspecified)
TGI (786-0 renal): > 100 µM | TGI (A498 renal): > 100 µM | TGI (A549 NSCLC): > 100 µM | TGI (ACHN renal): > 100 µM | TGI (CAKI-1 renal): > 100 µM | TGI (CCRF-CEM leukemia): > 100 µM | TGI (COLO 205 colon): > 100 µM | TGI (DU-145 prostate): > 100 µM | TGI (EKVX NSCLC): > 100 µM | TGI (HCC-2998 colon): > 100 µM | TGI (HCT-116 colon): > 100 µM | TGI (HCT-15 colon): > 100 µM | TGI (HL-60(TB) leukemia): > 100 µM | TGI (HOP-62 NSCLC): > 100 µM | TGI (HS 578T breast): > 100 µM | TGI (HT29 colon): > 100 µM | TGI (IGROV1 ovarian): > 100 µM | TGI (K-562 leukemia): > 100 µM | TGI (KM12 colon): > 100 µM | TGI (M14 melanoma): > 100 µM | TGI (MALME-3M melanoma): > 100 µM | TGI (MCF7 breast): > 100 µM | TGI (MDA-MB-231 breast): > 100 µM | TGI (MDA-MB-435): > 100 µM | TGI (MDA-N): > 100 µM | TGI (MOLT-4 leukemia): > 100 µM | TGI (NCI-H226 lung): > 100 µM | TGI (NCI-H23 lung): > 100 µM | TGI (NCI-H460 lung): > 100 µM | TGI (NCI-H522 lung): > 100 µM | TGI (NCI/ADR-RES ovarian): > 100 µM | TGI (OVCAR-3 ovarian): > 100 µM | TGI (OVCAR-4 ovarian): > 100 µM | TGI (OVCAR-5 ovarian): > 100 µM | TGI (OVCAR-8 ovarian): > 100 µM | TGI (PC-3 prostate): > 100 µM | TGI (RPMI-8226 leukemia): > 100 µM | TGI (RXF 393 renal): > 100 µM | TGI (SF-268 CNS): > 100 µM | TGI (SF-295 CNS): > 100 µM | TGI (SF-539 CNS): > 100 µM | TGI (SK-MEL-2 melanoma): > 100 µM | TGI (SK-MEL-28 melanoma): > 100 µM | TGI (SK-MEL-5 melanoma): > 100 µM | TGI (SK-OV-3 ovarian): > 100 µM | TGI (SN12C renal): > 100 µM | TGI (SNB-19 CNS): > 100 µM | TGI (SNB-75 CNS): > 100 µM | TGI (SR leukemia): > 100 µM | TGI (SW-620 colon): > 100 µM | TGI (T-47D breast): > 100 µM | TGI (TK-10 renal): > 100 µM | TGI (U251 CNS): > 100 µM | TGI (UACC-62 melanoma): > 100 µM | TGI (UO-31 renal): > 100 µM
